{
  "source": "patent US20120309087A1",
  "about": "“CANCER THERAPY” (University Court of The University of Dundee, priority 2006, published 2012)",
  "key": {"[1]": {"test_system": "ARE-driven luciferase activity in AREc32 cells", "assay": "Induction of ARE-driven luciferase activity in stable AREc32 reporter cells", "format": "cell-based, human", "details": "for CD, concentration of inducting agent that doubled luciferase reporter activity: DMSO set at 1"}, "[2]": {"test_system": "AKR1C mRNA in AREc32 cells", "assay": "AKR1C mRNA in AREc32 cells (TaqMan)", "details": "without pre-treatment with BSO; 24 h"}, "[3]": {"test_system": "AKR1C and NQO1 protein in MCF7 cells", "assay": "AKR1C and NQO1 protein in MCF7 cells (Western blots)", "format": "cell-based, human", "details": "sulforaphane 5 μM + retinoid 0.5 μM, 24 hrs", "method": "Method: AREc32 cells were seeded out in 96 well plates and treated with DMSO (control), tBHQ (50 μM), tBHQ+BTB09463 (5 μM) or tBHQ+Retinoic acid (1 μM). After 24 hours incubation, cells were washed and lysed before measuring luciferase activity. BTB09463 is 1-{4-[(3,4-dichlorobenzyl)oxy]phenyl}ethan-1-one. […] Method: AREc32 cells were seeded out in 96 well plates and dosed with BTB09463 (2.5, 5 or 10 μM) for 0, 24 or 48 hrs before treatment with tBHQ (50 μM). 24 hours after the addition of tBHQ, cells were washed and lysed before measuring luciferase activity. […] Method: ARE c32 cells were seeded out in 96 well plates and treated with DMSO (control), tBHQ (50 μM), tBHQ+retinoid (0.25, 0.5 and 1 μM). After 24 hours incubation, cells were washed and lysed before measuring luciferase activity. […] See FIG. 16 Method: A. Caco-2 cells were treated with the known ARE-gene inducer sulforaphane (5 μM), either alone or concomitantly with BTB09463 (5 μM) or Retinoic acid (1 μM). After 24 hrs, cell lysates were prepared and Western blotting performed to measure the levels of AKR1C protein. B. MCF7 cells were treated with sulforaphane (5 μM), either alone or concomitantly with BTB09463 (5 μM). After 24 hrs, cell lysates were prepared and Western blots performed to detect the levels of AKR1C and NQO1; GAPDH was used as a loading control in MCF7 cells. […] Method: Caco-2 cells were treated with DMSO (control), BTB09463 (5 μM), sulforaphane (5 μM) or a combination of sulforaphane plus BTB09463. After 24 hrs treatment, cells were harvested and RNA isolated. cDNA for each sample was generated by reverse transcription and subsequently used in real time PCR analysis of gene transcription (TaqMan analysis) for the ARE-driven genes AKR1C1 and NQO1. Data was normalised to the internal control 18S RNA and the relative levels of AKR1C1 and NQO1 calculated using the comparative CT method. […] Method: MCF7 cells were treated with the known ARE-gene inducer sulforaphane (5 μM), either alone or with various retinoids (0.5 μM). After 24 hrs, cell lysates were prepared and Western blots were performed to detect the levels of AKR1C protein present. […] See FIG. 19 Method: ARE reporter cell line AREc23 was seeded into 96 well plates and treated with a previously determined non-toxic concentration of cytotoxic drug. After 24 hours incubation, cells were washed and lysed before measuring luciferase activity. […] See FIG. 20a Method: ARE reporter cell line AREc23 was seeded into 96 well plates and treated with DMSO (control), Carmustine (100 μM), Carmustine+BTB09463 (5 μM) or Carmustine+Retinoic acid (5 μM) After 24 hours incubation, cells were washed and lysed before measuring luciferase activity. […] After 24 hours incubation, cells were washed and lysed before measuring luciferase activity. B. Modified repeat of experiment A, with cells being pretreated with L-buthionine-(SR)-sulfoximine (BSO), an inhibitor of enzymes in the glutathione synthesis pathway. After 24 hours incubation, cells were washed and lysed before measuring luciferase activity. […] Method: Caco-2 cells were treated for 24 hrs with DMSO (control), Carmustine (100 μM), Carmustine+BTB09463 (5 μM). After 24 hrs, cell lysates were prepared and Western blots to detect the levels of AKR1C. […] Method: MCF7 cells were treated for 24 hrs with DMSO (control; Lane 1), Sulforaphane (5 μM) (Lane 2), Carmustine (100 μM) (Lane 3), Carmustine+BTB09463 (5 μM) (Lane 5). (Lane 4 represents experimental conditions irrelevant to the application). After 24 hrs, cell lysates were prepared and Western blots to detect the levels of Nrf2, NQO1 and AKR1C proteins."}, "[4]": {"test_system": "AKR1C1, NQO1, GCLC, GCLM mRNA in A549 cells", "assay": "Constitutive mRNA of ARE-driven genes in A549 cells (Taqman)", "format": "cell-based, human", "details": "BTB09463 1, 5, 20, 40 μmol/l or retinoids 0.050, 0.20, 0.50, 2.0 μmol/l, 24 hrs"}, "[5]": {"test_system": "MCF7 cells", "assay": "cells", "format": "cell-based", "details": "single agent"}, "[6]": {"test_system": "A549 cells", "assay": "Cytotoxicity in A549 cells (ATP levels, 72 h)", "format": "cell-based, human", "details": "single agent"}, "[7]": {"details": "AREc32, 24 h, grouping of drugs by effect on luciferase activity"}},
  "note": "Read-outs that look alike come from different tables or passages of the source.",
  "data": [
    {"compound": "COS(C)(=O)=O", "note": "[MMS]", "values": [
      {"measurement": "CD, concentration of inducting agent that doubled luciferase reporter activity", "setting": "[1]; AREc32, 24 h", "result": 100, "unit": "µM"}
    ]},
    {"compound": "O=C(O)CCCc1ccc(N(CCCl)CCCl)cc1", "note": "[Chlorambucil]", "values": [
      {"measurement": "effect on luciferase activity in AREc32 cells (in words)", "setting": "[1]; 24 h, sub-lethal doses, no BSO", "result": "weak inducers"},
      {"measurement": "Type of modulation", "setting": "[1]; [7]", "result": "Weak inducers"},
      {"measurement": "mRNA level of AKR1C (in words)", "setting": "[2]", "result": "only slightly increased"}
    ]},
    {"compound": "N[C@@H](Cc1ccc(N(CCCl)CCCl)cc1)C(=O)O", "note": "[Mephalan, melphalan]", "values": [
      {"measurement": "induction of luciferase activity after BSO pre-treatment", "setting": "[1]; 50 μM BSO 24 h, then 10 μM cisplatin, 20 μM melphalan, 100 μM BCNU or 100 μM chlorambucil 24 h", "result": 5, "unit": "fold"},
      {"measurement": "effect on luciferase activity in AREc32 cells (in words)", "setting": "[1]; 24 h, sub-lethal doses, no BSO, listed as melphalan", "result": "weak inducers"},
      {"measurement": "effect on luciferase activity in AREc32 cells (in words)", "setting": "[1]; 24 h, sub-lethal doses, no BSO, listed as mephalan", "result": "modestly increased"},
      {"measurement": "Fold increase (luciferase activity relative to control value)", "setting": "[1]; AREc32, 24 h, concentration of each drug given in column Conc., mean ± S.D.", "result": "1.3 ± 0.06"},
      {"measurement": "Type of modulation", "setting": "[1]; [7]", "result": "Weak inducers"},
      {"measurement": "mRNA level of AKR1C (in words)", "setting": "[2]", "result": "only slightly increased"}
    ]},
    {"compound": "OCc1c[nH]c2ccccc12", "note": "[I3C]", "values": [
      {"measurement": "CD, concentration of inducting agent that doubled luciferase reporter activity", "setting": "[1]; AREc32, 24 h", "result": 20, "unit": "µM"}
    ]},
    {"compound": "CC1=C(/C=C/C(C)=C/C=C/C(C)=C/C=O)C(C)(C)CCC1", "note": "[all-trans retinal]", "values": [
      {"measurement": "sulforaphane-induced AKR1C protein", "setting": "[3]", "result": "reduced the expression of sulforaphane-induced AKR1C"},
      {"measurement": "constitutive expression of AKR1C1 mRNA", "setting": "[4]", "result": "inhibited the constitutive expression of AKR1C1 in a concentration-dependent manner"}
    ]},
    {"compound": "Bleomycin", "values": [
      {"measurement": "IC50", "setting": "[5]", "result": 660, "unit": "µM"},
      {"measurement": "IC50", "setting": "[6]", "result": 55, "unit": "µM"}
    ]},
    {"compound": "CCOc1ccc2c(c1)C(C)=CC(C)(C)N2", "note": "[Ethoxyquin]", "values": [
      {"measurement": "CD, concentration of inducting agent that doubled luciferase reporter activity", "setting": "[1]; AREc32, 24 h", "result": 5, "unit": "µM"}
    ]},
    {"compound": "C=CC=O", "note": "[Acrolein]", "values": [
      {"measurement": "increase in luciferase activity", "setting": "[1]; 10 μM acrolein", "result": 27, "unit": "fold"},
      {"measurement": "CD, concentration of inducting agent that doubled luciferase reporter activity", "setting": "[1]; AREc32, 24 h", "result": 2, "unit": "µM"},
      {"measurement": "Type of modulation", "setting": "[1]; [7]", "result": "Strong inducer"}
    ]},
    {"compound": "COc1cccc2c1C(=O)c1c(O)c3c(c(O)c1C2=O)C[C@@](O)(C(=O)CO)C[C@@H]3O[C@H]1C[C@H](N)[C@H](O)[C@H](C)O1", "note": "[Doxorubicin]", "values": [
      {"measurement": "effect on luciferase activity in AREc32 cells (in words)", "setting": "[1]; 24 h, sub-lethal doses, no BSO", "result": "no effect"},
      {"measurement": "Type of modulation", "setting": "[1]; [7]", "result": "Inactive"}
    ]},
    {"compound": "COc1cccc2c1C(=O)c1c(O)c3c(c(O)c1C2=O)C[C@@](O)(C(=O)CO)C[C@@H]3O[C@H]1C[C@H](N)[C@@H](O)[C@H](C)O1", "note": "[Epirubicin]", "values": [
      {"measurement": "effect on luciferase activity in AREc32 cells (in words)", "setting": "[1]; 24 h, sub-lethal doses, no BSO", "result": "no effect"},
      {"measurement": "Type of modulation", "setting": "[1]; [7]", "result": "Inactive"}
    ]},
    {"compound": "COc1ccc(O)c(C(C)(C)C)c1", "note": "[BHA]", "values": [
      {"measurement": "CD, concentration of inducting agent that doubled luciferase reporter activity", "setting": "[1]; AREc32, 24 h", "result": 20, "unit": "µM"}
    ]},
    {"compound": "O=P1(N(CCCl)CCCl)NCCCO1", "note": "(stereo not shown) [Cyclophosphamide]", "values": [
      {"measurement": "Type of modulation", "setting": "[1]", "result": "Inactive"},
      {"measurement": "effect on luciferase activity in AREc32 cells (in words)", "setting": "[1]", "result": "did not have any effect"}
    ]},
    {"compound": "CS(=O)(=O)OCCCCOS(C)(=O)=O", "note": "[busulphan]", "values": [
      {"measurement": "induction of ARE-driven luciferase activity", "setting": "[1]; previously determined non-toxic concentration, 24 hours", "result": 3.1, "unit": "fold"}
    ]},
    {"compound": "OO", "note": "[H2O2]", "values": [
      {"measurement": "CD, concentration of inducting agent that doubled luciferase reporter activity", "setting": "[1]; AREc32, 24 h", "result": 300, "unit": "µM"}
    ]}
  ]
}
